Reference: patent US20260184712A1, “Heterocyclic Compounds as ENT Inhibitors and Compounds for Use in the Treatment of Cancers” (iTeos Belgium SA, priority 2022, published 2026)

Target: T1, human ENT1 (Homo sapiens, UniProt Q99808)
T1 construct: JAR cells expressing ENT1 were purchased from ATCC; host or cells: JAR cells
T1 sequence (Q99808 1-456): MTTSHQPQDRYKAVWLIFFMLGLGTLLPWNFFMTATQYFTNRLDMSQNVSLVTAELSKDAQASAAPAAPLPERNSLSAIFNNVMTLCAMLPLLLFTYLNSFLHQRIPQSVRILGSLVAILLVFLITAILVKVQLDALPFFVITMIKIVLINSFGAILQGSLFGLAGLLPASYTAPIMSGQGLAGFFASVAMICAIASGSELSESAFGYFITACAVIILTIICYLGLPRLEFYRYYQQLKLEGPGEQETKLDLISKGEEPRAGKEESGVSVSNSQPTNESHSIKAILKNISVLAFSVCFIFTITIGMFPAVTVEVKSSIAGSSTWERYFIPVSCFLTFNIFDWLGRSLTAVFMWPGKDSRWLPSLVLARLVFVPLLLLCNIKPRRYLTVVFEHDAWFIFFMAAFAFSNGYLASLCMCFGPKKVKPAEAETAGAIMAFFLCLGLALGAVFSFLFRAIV
Test: ENT1 binding assay (competition with Sahenta-DY647 on JAR cells)
Details: competition with SAHENTA-DY647 binding; IC50 categorized; read-out: Binding Assay IC50
In short: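 Fluorescent-tracer displacement: compound incubated with JAR cells 30 min, 4 °C, before Sahenta-DY647 (100 nM) for another 30 min, 4 °C, in Hepes-buffered HBSS with 0.1% BSA. Bound tracer read at 670 nm after washes; IC50 from four-parameter fit, reported as mean of pIC50 values.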

SMILES | IC50
C[C@H]1O[C@@H](n2cnc3c(OCCc4ccc(C#N)nc4)ncnc32)[C@H](O)[C@@H]1O [Compound 319] | > 500 nM
CC(=O)c1ccc(COc2ncnc3c2ncn3[C@@H]2O[C@H](C)[C@@H](O)[C@H]2O)cc1 [Compound 245] | > 500 nM
C[C@H]1O[C@@H](n2cnc3c(OCc4ccc(OCCF)cc4)ncnc32)[C@H](O)[C@@H]1O [Compound 236] | > 500 nM
C[C@H]1O[C@@H](n2cnc3c(NCc4ccc(NS(C)(=O)=O)cc4)ncnc32)[C@H](O)[C@@H]1O [Compound 261] | > 500 nM
CNS(=O)(=O)c1ccc(CSc2ncnc3c2ncn3[C@@H]2O[C@H](C)[C@@H](O)[C@H]2O)cc1 [Compound 297] | > 500 nM
C[C@H]1O[C@@H](n2cnc3c(OCc4ccccc4S(C)(=O)=O)ncnc32)[C@H](O)[C@@H]1O [Compound 375] | > 500 nM
CC(C)(O)[C@H]1O[C@@H](n2cnc3c(SCc4ccc(OC(F)(F)F)cc4)ncnc32)[C@H](O)[C@@H]1O [Compound 262] | > 500 nM
CC(C)NC(=O)c1ccc(CNc2ncnc3c2ncn3[C@@H]2O[C@H](C)[C@@H](O)[C@H]2O)cc1 [Compound 386] | > 500 nM
Cc1ccc(CNc2ncnc3c2ncn3[C@@H]2O[C@H](C)[C@@H](O)[C@H]2O)cc1C [Compound 320] | > 500 nM
C[C@H]1O[C@@H](n2cnc3c(OCc4ccc(Cl)c(Cl)c4)ncnc32)[C@H](O)[C@@H]1O [Compound 226] | > 500 nM
CC(CCO)Nc1nc2c(OCc3ccc(Cl)cc3)ncnc2n1[C@@H]1O[C@H](C)[C@@H](O)[C@H]1O (stereo partly drawn) [Compound 97] | 1 to 20 nM
C[C@H]1O[C@@H](n2c(NCC3CCC(F)(F)C3)nc3c(OCc4ccc(C#N)cc4)ncnc32)[C@H](O)[C@@H]1O (stereo partly drawn) [Compound 105] | 1 to 20 nM
COCCCNc1nc2c(N3CCc4ccc([N+](=O)[O-])cc4C3)ncnc2n1[C@@H]1O[C@H](C)[C@@H](O)[C@H]1O [Compound 146] | 1 to 20 nM
C[C@H]1O[C@@H](n2cnc3c(OCc4ccc(OC(F)(F)F)c(Cl)c4)ncnc32)[C@H](O)[C@@H]1O [Compound 234] | > 500 nM
C[C@H]1O[C@@H](n2cnc3c(OCc4ccc(C(F)(F)F)cc4)ncnc32)[C@H](O)[C@@H]1O [Compound 204] | 20 to 500 nM
CNc1ccccc1COc1ncnc2c1ncn2[C@@H]1O[C@H](C)[C@@H](O)[C@H]1O [Compound 372] | > 500 nM
C[C@H]1O[C@@H](n2cnc3c(NCc4ccc(-c5ccccn5)cc4)ncnc32)[C@H](O)[C@@H]1O [Compound 384] | > 500 nM

SMILES | IC50
C[C@H]1O[C@@H](n2cnc3c(COc4ccc(Cl)cc4)ncnc32)[C@H](O)[C@@H]1O [Compound 285] | > 500 nM
C[C@H]1O[C@@H](n2c(NCC3CC(F)(F)C3)nc3c(OCc4ccc(C#N)cc4)ncnc32)[C@H](O)[C@@H]1O [Compound 104] | 1 to 20 nM
C[C@H]1O[C@@H](n2cnc3c(SCc4ccc(C(F)(F)F)nc4)ncnc32)[C@H](O)[C@@H]1O [Compound 270] | > 500 nM
C[C@H]1O[C@@H](n2c(N[C@H]3C[C@@](C)(O)C3)nc3c(OCc4ccc(C#N)cc4)ncnc32)[C@H](O)[C@@H]1O [Compound 119] | 20 to 500 nM
C[C@H]1O[C@@H](n2c(N[C@H]3CC[C@](C)(O)CC3)nc3c(OCc4ccc(Cl)cc4)ncnc32)[C@H](O)[C@@H]1O [Compound 127] | 20 to 500 nM
C[C@H]1O[C@@H](n2cnc3c(OCCc4ccc(C(F)F)cc4)ncnc32)[C@H](O)[C@@H]1O [Compound 267] | > 500 nM
C[C@H]1O[C@@H](n2cnc3c(OCCc4ccc(=O)n(C)c4)ncnc32)[C@H](O)[C@@H]1O [Compound 401] | > 500 nM
Cc1ccc(COc2ncnc3c2ncn3[C@@H]2O[C@H](C)[C@@H](O)[C@H]2O)cc1 [Compound 211] | 20 to 500 nM
C[C@H]1O[C@@H](n2cnc3c(OCCc4ccc(C#N)c(F)c4)ncnc32)[C@H](O)[C@@H]1O [Compound 232] | > 500 nM
C[C@H]1O[C@@H](n2cnc3c(COCc4ccccc4)ncnc32)[C@H](O)[C@@H]1O [Compound 399] | > 500 nM
O=[N+]([O-])c1ccc(COc2ncnc3c2ncn3[C@H]2C[C@H](O)[C@@H](CO)O2)cc1 [Compound 405] | > 500 nM
C[C@H]1O[C@@H](n2cnc3c(SCc4cc(-c5ccco5)on4)ncnc32)[C@H](O)[C@@H]1O [Compound 359] | > 500 nM
C[C@H]1O[C@@H](n2cnc3c(OCc4ccc([N+](=O)[O-])cn4)ncnc32)[C@H](O)[C@@H]1O [Compound 281] | > 500 nM
C[C@H]1O[C@@H](n2cnc3c(N4CCC(c5ccc([N+](=O)[O-])cc5)CC4)ncnc32)[C@H](O)[C@@H]1O [Compound 213] | 20 to 500 nM
CC(CCO)Nc1nc2c(OCc3ccc(C(F)(F)F)cc3)ncnc2n1[C@@H]1O[C@H](C)[C@@H](O)[C@H]1O (stereo partly drawn) [Compound 96] | 1 to 20 nM
CC1OC(n2c(NC3CC(C)(O)C3)nc3c(N4CCc5ccc([N+](=O)[O-])cc5C4)ncnc32)C(O)C1O (single isomer, unassigned) [Compound 137] | < 1 nM
C[C@H]1O[C@@H](n2cnc3c(CCc4ccc([N+](=O)[O-])cc4)ncnc32)[C@H](O)[C@@H]1O [Compound 210] | 20 to 500 nM

The remaining lines, values ahead:

IC50 | SMILES
1 to 20 nM | COCCCNc1nc2c(N3CCc4ccc(C#N)cc4C3)ncnc2n1[C@@H]1O[C@H](C)[C@@H](O)[C@H]1O [Compound 160]
> 500 nM | C[C@H]1O[C@H](n2cnc3c(OCc4ccc(C#N)c(F)c4)nc(Cl)nc32)[C@H](O)[C@@H]1O [Compound 237]
1 to 20 nM | C[C@H]1O[C@@H](n2c(NCCO)nc3c(OCc4ccc(OC(F)F)cc4)ncnc32)[C@H](O)[C@@H]1O [Compound 42]
> 500 nM | C[C@H]1O[C@@H](n2cnc3c(OCCc4ccc(C#N)cc4)ncnc32)[C@H](O)[C@@H]1O [Compound 249]
1 to 20 nM | C[C@H]1O[C@@H](n2c(NC3CC3)nc3c(OCc4ccc(C#N)cc4)ncnc32)[C@H](O)[C@@H]1O [Compound 39]
> 500 nM | C[C@H]1O[C@@H](n2cnc3c(OCc4ncc(F)cc4F)ncnc32)[C@H](O)[C@@H]1O [Compound 362]
> 500 nM | C[C@H]1O[C@@H](n2cnc3c(OCCc4ccc(C(F)F)nc4)ncnc32)[C@H](O)[C@@H]1O [Compound 400]
> 500 nM | C[C@H]1O[C@@H](n2cnc3c(NCc4ccc(S(N)(=O)=O)cc4)ncnc32)[C@H](O)[C@@H]1O [Compound 334]
> 500 nM | C[C@H]1O[C@@H](n2cnc3c(OCc4cccc(C(F)(F)F)c4)ncnc32)[C@H](O)[C@@H]1O [Compound 274]
< 1 nM | C[C@H]1O[C@@H](n2c(NCCCS(C)(=O)=O)nc3c(N4CCc5ccc([N+](=O)[O-])cc5C4)ncnc32)[C@H](O)[C@@H]1O [Compound 143]
20 to 500 nM | C[C@H]1O[C@@H](n2cnc3c(OCc4ccc([N+](=O)[O-])nc4)ncnc32)[C@H](O)[C@@H]1O [Compound 205]
> 500 nM | Cc1cc(CSc2ncnc3c2ncn3[C@@H]2O[C@H](C)[C@@H](O)[C@H]2O)cc(C)c1F [Compound 272]
20 to 500 nM | O=[N+]([O-])c1ccc(COc2ncnc3c2nc(NC2CCCC2)n3[C@@H]2O[C@H](COCCO)[C@@H](O)[C@H]2O)cc1 [Compound 135]
> 500 nM | C[C@H]1O[C@@H](n2cnc3c(OCc4ccc5c(c4)OCC5)ncnc32)[C@H](O)[C@@H]1O [Compound 313]
> 500 nM | C[C@H]1O[C@@H](n2cnc3c(SCc4ccc(C#N)cn4)ncnc32)[C@H](O)[C@@H]1O [Compound 257]
> 500 nM | NC[C@H]1O[C@@H](n2cnc3c(SCc4ccc([N+](=O)[O-])cc4)ncnc32)[C@H](O)[C@@H]1O [Compound 287]
> 500 nM | Cc1nccn1-c1ccc(COc2ncnc3c2ncn3[C@@H]2O[C@H](C)[C@@H](O)[C@H]2O)cc1 [Compound 381]
> 500 nM | C[C@H]1O[C@@H](n2cnc3c(OCc4cc(F)c(C#N)c(F)c4)nc(Cl)nc32)[C@H](O)[C@@H]1O [Compound 284]
> 500 nM | O=[N+]([O-])c1ccc(COc2ncnc3c2nnn3[C@@H]2C[C@H](OCCO)[C@@H](O)[C@H]2O)cc1 [Compound 309]
20 to 500 nM | Cc1cc(COc2ncnc3c2nc(NC2CCCC2)n3[C@@H]2O[C@H](C)[C@@H](O)[C@H]2O)ccn1 [Compound 15]
< 1 nM | C[C@H]1O[C@@H](n2c(NC3CCCC3)nc3c(OCc4ccc([N+](=O)[O-])nc4)ncnc32)[C@H](O)[C@@H]1O [Compound 85]
> 500 nM | C[C@H]1O[C@@H](n2cnc3c(COCc4ccc(Cl)cc4)ncnc32)[C@H](O)[C@@H]1O [Compound 290]
1 to 20 nM | CC1OC(n2c(NC3CC(C)(O)C3)nc3c(OCc4ccc([N+](=O)[O-])cc4)ncnc32)C(O)C1O (single isomer, unassigned) [Compound 133]
> 500 nM | C[C@H]1O[C@@H](n2cnc3c(CN4Cc5ccc(C#N)cc5C4)ncnc32)[C@H](O)[C@@H]1O [Compound 317]
20 to 500 nM | O=[N+]([O-])c1ccc(COc2ncnc3c2ncn3[C@@H]2O[C@H](CCCO)[C@@H](O)[C@H]2O)cc1 [Compound 218]
> 500 nM | C[C@H]1O[C@@H](n2cnc3c(OCc4ccc(F)c(F)c4F)ncnc32)[C@H](O)[C@@H]1O [Compound 238]
